Data from patent publication US7371769B2, “Tetrahydropyridin-4-yl indoles with a combination of affinity for dopamine-D2 receptors and serotonin reuptake sites” (Solvay Pharmaceuticals B.V., priority 2004, dated 2008).
Structures can show the parent of a compound that is named as a salt.

Assays:
[1] = biological target: T1, dopamine-D2 receptors (Rattus norvegicus, UniProt P61169); assay: In vitro affinity for dopamine-D2 receptors ([3H]-spiroperidol receptor binding assay); settings: read-out: Dopamine-D2 pKi (converted)
T1 construct: labels dopamine receptors in rat pituitary and brain; from tissue; host or cells: rat pituitary / brain (from the title of the cited method only)
T1 sequence (P61169 whole entry): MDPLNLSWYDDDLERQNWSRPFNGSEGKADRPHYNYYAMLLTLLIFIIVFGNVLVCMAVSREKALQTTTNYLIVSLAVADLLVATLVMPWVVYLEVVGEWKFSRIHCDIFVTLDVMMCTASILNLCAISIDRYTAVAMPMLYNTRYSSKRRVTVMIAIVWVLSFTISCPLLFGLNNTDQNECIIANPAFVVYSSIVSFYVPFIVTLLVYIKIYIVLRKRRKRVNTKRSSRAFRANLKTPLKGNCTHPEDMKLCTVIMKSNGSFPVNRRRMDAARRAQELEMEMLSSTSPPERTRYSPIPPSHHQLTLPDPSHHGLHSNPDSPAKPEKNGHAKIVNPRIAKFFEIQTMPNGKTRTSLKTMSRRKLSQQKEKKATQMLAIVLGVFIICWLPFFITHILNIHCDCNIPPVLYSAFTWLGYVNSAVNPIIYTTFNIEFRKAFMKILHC
Procedure: In vitro Affinity for Dopamine-D2 Receptors
Affinity of the compounds for dopamine-D2 receptors was determined using the receptor binding assay described by I. Creese, R. Schneider and S. H. Snyder: “[^3H]-Spiroperidol labels dopamine receptors in rat pituitary and brain”, Eur. J. Pharmacol., 46, 377-381,1977.
(§1) The affinity of the compounds of the invention for dopamine-D2 receptors and serotonine reuptake sites was determined as described above. From the binding affinity measured for a given compound of formula (1), one can estimate a theoretical lowest effective dose. At a concentration of the compound equal to twice the measured Ki-value, 100% of the receptors likely will be occupied by the compound. Converting that concentration to mg of compound per kg of patient yields a theoretical lowest effective dose, assuming ideal bioavailability. Pharmacokinetic, pharmacodynamic, and other considerations may alter the dose actually administered to a higher or lower value. The dosage expediently administered is 0.001-1000 mg/kg, preferably 0.1-100 mg/kg of patient's bodyweight.

[2] = biological target: T2, serotonin reuptake sites (Rattus norvegicus, UniProt P31652); assay: In vitro affinity for serotonin reuptake sites ([3H]-paroxetine binding assay); settings: read-out: 5-HT reuptake pKi (converted)
T2 construct: from tissue; host or cells: rat cortical membranes (from the title of the cited method only)
T2 sequence (P31652 whole entry): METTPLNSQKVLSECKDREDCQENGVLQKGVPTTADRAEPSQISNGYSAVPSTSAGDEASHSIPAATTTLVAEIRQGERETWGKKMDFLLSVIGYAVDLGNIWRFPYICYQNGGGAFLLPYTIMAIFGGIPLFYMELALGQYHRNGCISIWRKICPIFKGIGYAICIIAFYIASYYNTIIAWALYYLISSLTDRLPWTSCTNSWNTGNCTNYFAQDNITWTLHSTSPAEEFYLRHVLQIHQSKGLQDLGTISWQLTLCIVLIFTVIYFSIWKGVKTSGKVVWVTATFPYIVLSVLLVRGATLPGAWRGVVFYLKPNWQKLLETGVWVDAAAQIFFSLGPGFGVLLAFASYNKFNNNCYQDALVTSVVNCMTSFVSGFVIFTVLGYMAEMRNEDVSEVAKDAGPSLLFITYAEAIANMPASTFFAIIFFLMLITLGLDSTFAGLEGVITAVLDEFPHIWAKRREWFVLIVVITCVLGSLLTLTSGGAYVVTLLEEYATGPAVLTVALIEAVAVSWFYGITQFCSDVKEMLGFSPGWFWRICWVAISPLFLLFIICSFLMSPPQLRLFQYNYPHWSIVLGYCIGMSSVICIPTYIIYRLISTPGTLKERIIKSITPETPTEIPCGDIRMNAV
Procedure: In vitro Affinity for Serotonin Reuptake Sites
Affinity of the compounds for serotonin reuptake sites was determined using the receptor binding assay described by E. Habert et al.,: “Characterisation of [^3H]-paroxetine binding to rat cortical membranes”, Eur. J. Pharmacol., 118, 107-114, 1985.
as §1

Cc1nc2ccccn2c(=O)c1CCN1CC=C(c2c[nH]c3ccccc23)CC1 (as salt: HCl) [Compound 1]
melting point: 205 °C (dec.)

Cc1ccn2c(=O)c(CCN3CC=C(c4c[nH]c5ccccc45)CC3)c(C)nc2c1 (as salt: HCl) [Compound 15]
melting point: 261 to 264 °C

COc1nc(C)c(CCN2CC=C(c3c[nH]c4ccccc34)CC2)c(=O)n1C (as salt: HCl) [Compound 18, 5-[2-[4-(1H-indol-3-yl)-1,2,3,6-tetrahydropyridin-1-yl]ethyl]-2-methoxy-3,6-dimethyl-3H-pyrimidin-4-one]
melting point: 209 to 211 °C

CSc1nc(C)c(CCN2CC=C(c3c[nH]c4ccccc34)CC2)c(=O)n1C (as salt: salt)
melting point: 245 to 246 °C

Cc1nc2c(C)cccn2c(=O)c1CCN1CC=C(c2c[nH]c3ccc(F)cc23)CC1 (as salt: salt)
melting point: 229 to 230 °C

Cc1nc2ccccn2c(=O)c1CCN1CC=C(c2c[nH]c3ccc(F)cc23)CC1 (as salt: salt) [Compound 7]
melting point: 226 to 227 °C (dec.)

CSc1nc(C)c(CCN2CC=C(c3c[nH]c4ccc(F)cc34)CC2)c(=O)n1C (as salt: salt) [Compound 19]
melting point: 229 °C (dec.)

Cc1nc2c(C)cccn2c(=O)c1CCN1CC=C(c2c[nH]c3ccccc23)CC1 (as salt: salt) [Compound 22, 3-[2-[4-(1H-indol-3-yl)-1,2,3,6-tetrahydropyridin-1-yl]-ethyl]-2,9-dimethyl-4H-pyrido[1,2-a]pyrimidin-4-one]
melting point: 242 to 246 °C

CCc1ccn2c(=O)c(CCN3CC=C(c4c[nH]c5ccc(F)cc45)CC3)c(C)nc2c1 (as salt: salt) [Compound 24]
melting point: 198 to 201 °C

Cc1nc2cc(-c3ccccc3)ccn2c(=O)c1CCN1CC=C(c2c[nH]c3ccccc23)CC1 (as salt: salt) [Compound 27]
melting point: 211 to 224 °C

Cc1ncn(C)c(=O)c1CCN1CC=C(c2c[nH]c3ccc(F)cc23)CC1 (as salt: salt) [Compound 33]
melting point: 234 to 235 °C (dec.)

Cc1nc2ccccn2c(=O)c1CCN1CC=C(c2c[nH]c3ccccc23)CC1 [Compound 1]
Ki [1]: 20 nM
Ki [2]: 1.58 nM

Cc1nc2ccccn2c(=O)c1CCN1CC=C(c2c[nH]c3ccc(F)cc23)CC1 [Compound 7]
Ki [1]: 15.8 nM
Ki [2]: 0.316 nM

Cc1nc2n(c(=O)c1CCN1CC=C(c3c[nH]c4ccccc34)CC1)CCS2 [Compound 10]
Ki [1]: 15.8 nM
Ki [2]: 1.58 nM

Cc1nc2sccn2c(=O)c1CCN1CC=C(c2c[nH]c3ccccc23)CC1 [Compound 11]
Ki [1]: 10 nM
Ki [2]: 2.51 nM

CSc1nc(C)c(CCN2CC=C(c3c[nH]c4ccccc34)CC2)c(=O)[nH]1 [Compound 14]
Ki [1]: 100 nM
Ki [2]: 50.1 nM

Cc1ccn2c(=O)c(CCN3CC=C(c4c[nH]c5ccccc45)CC3)c(C)nc2c1 [Compound 15]
Ki [1]: 7.94 nM
Ki [2]: 3.98 nM

COc1nc(C)c(CCN2CC=C(c3c[nH]c4ccccc34)CC2)c(=O)n1C [Compound 18, 5-[2-[4-(1H-indol-3-yl)-1,2,3,6-tetrahydropyridin-1-yl]ethyl]-2-methoxy-3,6-dimethyl-3H-pyrimidin-4-one]
Ki [1]: 31.6 nM
Ki [2]: 0.794 nM

CSc1nc(C)c(CCN2CC=C(c3c[nH]c4ccc(F)cc34)CC2)c(=O)n1C [Compound 19]
Ki [1]: 6.31 nM
Ki [2]: 25.1 nM

CSc1nc(C)c(CCN2CC=C(c3cn(C)c4ccccc34)CC2)c(=O)n1C [Compound 20]
Ki [1]: 100 nM
Ki [2]: 7.94 nM

Cc1ccn2c(=O)c(CCN3CC=C(c4c[nH]c5ccc(F)cc45)CC3)c(C)nc2c1 [Compound 21]
Ki [1]: 31.6 nM
Ki [2]: 0.158 nM

Cc1nc2c(C)cccn2c(=O)c1CCN1CC=C(c2c[nH]c3ccccc23)CC1 [Compound 22, 3-[2-[4-(1H-indol-3-yl)-1,2,3,6-tetrahydropyridin-1-yl]-ethyl]-2,9-dimethyl-4H-pyrido[1,2-a]pyrimidin-4-one]
Ki [1]: 7.94 nM
Ki [2]: 1.58 nM

CCc1ccn2c(=O)c(CCN3CC=C(c4c[nH]c5ccc(F)cc45)CC3)c(C)nc2c1 [Compound 24]
Ki [1]: 10 nM
Ki [2]: 7.94 nM

Cc1nc2cc(-c3ccccc3)ccn2c(=O)c1CCN1CC=C(c2c[nH]c3ccccc23)CC1 [Compound 27]
Ki [1]: 63.1 nM
Ki [2]: 0.316 nM

Cc1ncn(C)c(=O)c1CCN1CC=C(c2c[nH]c3ccc(F)cc23)CC1 [Compound 33]
Ki [1]: 50.1 nM
Ki [2]: 3.16 nM
